# Reference: patent US6737383B1, “Herbicidal oxadiazolidines” (priority 1999, dated 2004)
# Experiments:
# [1] = tested on: pigweed; test: Test B pre/postemergence pigweed; format: in vivo, Amaranthus retroflexus
# Outline: (§1)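 Response is a visual 0-to-10 score relative to untreated plants, where 0 means no effect and 10 means complete control, taken twelve to sixteen days after application. Treatments went onto soil at planting and onto foliage of 1- to 4-leaf plants, using a surfactant-containing non-phytotoxic solvent.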
# [2] = tested on: giant foxtail; test: Test B pre/postemergence giant foxtail; format: in vivo, Setaria faberii
# Outline: as §1
# [3] = tested on: wild oat; test: Test B pre/postemergence wild oat; format: in vivo, Avena fatua
# Outline: as §1
# [4] = tested on: purple nutsedge; test: Test B pre/postemergence purple nutsedge; format: in vivo, Cyperus rotundus
# Outline: as §1
# [5] = tested on: corn; test: Test B pre/postemergence corn; format: in vivo, Zea mays
# Outline: as §1
# [6] = tested on: wheat; test: Test B pre/postemergence wheat; format: in vivo, Triticum aestivum
# Outline: as §1
# [7] = tested on: crabgrass; test: Test B pre/postemergence crabgrass; format: in vivo, Digitaria sanguinalis
# Outline: as §1
# [8] = tested on: blackgrass; test: Test B pre/postemergence blackgrass; format: in vivo, Alopecurus myosuroides
# Outline: as §1
# [9] = tested on: bedstraw; test: Test B pre/postemergence bedstraw; format: in vivo, Galium aparine
# Outline: as §1
# [10] = tested on: surinam grass; test: Test B pre/postemergence surinam grass; format: in vivo, Brachiaria decumbens
# Outline: as §1
# [11] = tested on: rice; test: Test B flood test rice; format: in vivo, Oryza sativa
# Outline: (§2)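 Each value is a visual injury score relative to controls, with 10 meaning complete control and 0 no effect. Evaluation took place twelve to sixteen days after the 2-leaf-stage plants were treated and kept in the greenhouse.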
# [12] = tested on: bamyardgrass; test: Test B flood test barnyardgrass; format: in vivo, Echinochloa crus-galli
# Outline: as §2
# [13] = tested on: sugar beet; test: Test B pre/postemergence sugar beet; format: in vivo, Beta vulgaris
# Outline: as §1
# [14] = tested on: cocklebur; test: Test B pre/postemergence cocklebur; format: in vivo, Xanthium strumarium
# Outline: as §1
# [15] = tested on: morningglory; test: Test B pre/postemergence morningglory; format: in vivo, Ipomoea hederacea
# Outline: as §1
# [16] = tested on: rape; test: Test B pre/postemergence rape; format: in vivo, Brassica napus
# Outline: as §1
# [17] = Postemergence, Rate 62 g/ha, scale 0 to 10, 0 is no effect, 10 is complete control
# [18] = Postemergence, Rate 250 g/ha, scale of 0 to 10, 0 is no effect, 10 is complete control
# [19] = Preemergence, Rate 62 g/ha, scale 0 to 10 (0 no effect, 10 complete control)
# [20] = Preemergence, Rate 125 g/ha, scale of 0 to 10 where 0 is no effect and 10 is complete control
# [21] = Preemergence, Rate 250 g/ha, scale 0 to 10 (0 no effect, 10 complete control)
# [22] = Preemergence, Rate 500 g/ha, scale of 0 to 10 where 0 is no effect and 10 is complete control
# [23] = Postemergence, Rate 125 g/ha, scale of 0 to 10 where 0 is no effect and 10 is complete control
# [24] = Postemergence, Rate 500 g/ha, scale of 0 to 10 where 0 is no effect and 10 is complete control
# [25] = Rate 62 g/ha, flood test species, Pre-emergence, visual evaluation after twelve to sixteen days
# [26] = Rate 125 g/ha, under heading Pre-emergence, flood test species, visual evaluation after twelve to sixteen days
# [27] = Rate 250 g/ha, Pre-emergence (flood test species), scale 0 to 10, 0 is no effect, 10 is complete control
# [28] = Rate 500 g/ha, Pre-emergence section of Table B, 0 to 10 scale (0 no effect, 10 complete control)
smiles,measurement,setting,value
CCOC(Cn1c(=O)on(C(=O)N(c2ccc(F)cc2)C(C)C)c1=O)OCC [Compound 629],"Plant response rating, Redroot pigweed",[1]; [17],0
same,Redroot pigweed plant response rating,[1]; [18],2
same,Redroot pigweed plant response rating,[1]; [19],2
same,Redroot pigweed plant response rating,[1]; [20],10
same,"Plant response rating, Redroot pigweed",[1]; [21],10
same,"Plant response rating, Redroot pigweed",[1]; [22],10
same,"Plant response rating, Giant foxtail",[2]; [17],3
same,"Plant response rating, Giant foxtail",[2]; [23],8
same,Giant foxtail plant response rating,[2]; [18],9
same,"Plant response rating, Giant foxtail",[2]; [24],9
same,Giant foxtail plant response rating,[2]; [19],8
same,Giant foxtail plant response rating,[2]; [20],10
same,"Plant response rating, Giant foxtail",[2]; [21],10
same,"Plant response rating, Giant foxtail",[2]; [22],10
same,"Plant response rating, Wild oats",[3]; [17],0
same,"Plant response rating, Wild oats",[3]; [23],0
same,Wild oats plant response rating,[3]; [19],0
same,Wild oats plant response rating,[3]; [20],0
same,"Plant response rating, Wild oats",[3]; [21],9
same,"Plant response rating, Wild oats",[3]; [22],9
same,"Plant response rating, Nutsedge",[4]; [17],0
same,"Plant response rating, Nutsedge",[4]; [23],0
same,Nutsedge plant response rating,[4]; [18],0
same,"Plant response rating, Nutsedge",[4]; [24],0
same,Nutsedge plant response rating,[4]; [19],0
same,Nutsedge plant response rating,[4]; [20],2
same,"Plant response rating, Nutsedge",[4]; [21],5
same,"Plant response rating, Nutsedge",[4]; [22],5
same,"Plant response rating, Corn",[5]; [17],3
same,"Plant response rating, Corn",[5]; [23],3
same,Corn plant response rating,[5]; [18],4
same,"Plant response rating, Corn",[5]; [24],6
same,Corn plant response rating,[5]; [19],1
same,Corn plant response rating,[5]; [20],2
same,"Plant response rating, Corn",[5]; [21],6
same,"Plant response rating, Corn",[5]; [22],8
same,"Plant response rating, Wheat",[6]; [17],0
same,"Plant response rating, Wheat",[6]; [23],0
same,Wheat plant response rating,[6]; [18],0
same,Wheat plant response rating,[6]; [19],0
same,Wheat plant response rating,[6]; [20],0
same,"Plant response rating, Wheat",[6]; [21],3
same,"Plant response rating, Wheat",[6]; [22],3
same,"Plant response rating, Crabgrass",[7]; [17],1
same,"Plant response rating, Crabgrass",[7]; [23],3
same,Crabgrass plant response rating,[7]; [18],8
same,"Plant response rating, Crabgrass",[7]; [24],9
same,Crabgrass plant response rating,[7]; [19],7
same,Crabgrass plant response rating,[7]; [20],9
same,"Plant response rating, Crabgrass",[7]; [21],9
same,"Plant response rating, Crabgrass",[7]; [22],10
same,"Plant response rating, Blackgrass",[8]; [17],3
same,"Plant response rating, Blackgrass",[8]; [23],8
same,Blackgrass plant response rating,[8]; [18],8
same,"Plant response rating, Blackgrass",[8]; [24],8
same,Blackgrass plant response rating,[8]; [19],4
same,Blackgrass plant response rating,[8]; [20],8
same,"Plant response rating, Blackgrass",[8]; [21],8
same,"Plant response rating, Blackgrass",[8]; [22],10
same,"Plant response rating, Bedstraw",[9]; [17],3
same,"Plant response rating, Bedstraw",[9]; [23],5
same,Bedstraw plant response rating,[9]; [18],8
same,Bedstraw plant response rating,[9]; [19],0
same,Bedstraw plant response rating,[9]; [20],0
same,"Plant response rating, Bedstraw",[9]; [21],3
same,"Plant response rating, Bedstraw",[9]; [22],8
same,"Plant response rating, B. signalgrass",[10]; [17],0
same,"Plant response rating, B. signalgrass",[10]; [23],1
same,B. signalgrass plant response rating,[10]; [18],3
same,"Plant response rating, B. signalgrass",[10]; [24],7
same,B. signalgrass plant response rating,[10]; [19],0
same,B. signalgrass plant response rating,[10]; [20],2
same,"Plant response rating, B. signalgrass",[10]; [21],5
same,"Plant response rating, B. signalgrass",[10]; [22],8
same,"Plant response rating, Rice (0 to 10 scale, 0 is no effect, 10 is complete control)",[11]; [25],0
same,"Rice plant response rating (0 to 10 scale, 0 is no effect, 10 is complete control)",[11]; [26],0
same,Rice plant response rating,[11]; [27],0
same,Rice plant response rating,[11]; [28],0
same,"Plant response rating, Barnyardgrass (0 to 10 scale, 0 is no effect, 10 is complete control)",[12]; [25],0
same,"Barnyardgrass plant response rating (0 to 10 scale, 0 is no effect, 10 is complete control)",[12]; [26],0
same,Barnyardgrass plant response rating,[12]; [27],0
same,Barnyardgrass plant response rating,[12]; [28],0
same,"Plant response rating, Sugarbeets",[13]; [17],0
same,"Plant response rating, Sugarbeets",[13]; [23],0
same,Sugarbeets plant response rating,[13]; [18],0
same,Sugarbeets plant response rating,[13]; [19],2
same,"Plant response rating, Sugarbeets",[13]; [21],3
same,"Plant response rating, Sugarbeets",[13]; [22],7
same,"Plant response rating, Cocklebur",[14]; [17],0
same,"Plant response rating, Cocklebur",[14]; [23],0
same,Cocklebur plant response rating,[14]; [18],0
same,"Plant response rating, Cocklebur",[14]; [24],2
same,Cocklebur plant response rating,[14]; [19],0
same,Cocklebur plant response rating,[14]; [20],0
same,"Plant response rating, Cocklebur",[14]; [21],3
same,"Plant response rating, Cocklebur",[14]; [22],7
same,"Plant response rating, Morningglory",[15]; [17],2
same,"Plant response rating, Morningglory",[15]; [23],2
same,Morningglory plant response rating,[15]; [18],3
same,"Plant response rating, Morningglory",[15]; [24],3
same,Morningglory plant response rating,[15]; [19],0
same,Morningglory plant response rating,[15]; [20],0
same,"Plant response rating, Morningglory",[15]; [21],0
same,"Plant response rating, Morningglory",[15]; [22],4
same,"Plant response rating, Rape",[16]; [17],0
same,"Plant response rating, Rape",[16]; [23],0
same,Rape plant response rating,[16]; [18],0
same,"Plant response rating, Rape",[16]; [24],3
same,Rape plant response rating,[16]; [19],0
same,Rape plant response rating,[16]; [20],0
same,"Plant response rating, Rape",[16]; [21],4
same,"Plant response rating, Rape",[16]; [22],9
